# Results taken from PubChem BioAssay AID250 (DTP/NCI, 2004).
# “And” between values parts separate entries of the source, which are not always exact repeats. Identical values can stand only once. Inconclusive results and toxic doses are left out.
# Test system: BDF1 mice, L1210 leukemia sc, survival T/C
# Assay: NCI In Vivo Anticancer Drug Screen. Data for tumor model L1210 Leukemia (subcutaneous) in B6D2F1 (BDF1) mice
# Conditions: higher = longer survival
# Outline: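 Tumors were transplanted into mice, the animals were treated with compound, survival or tumor size was then measured, and treated values were divided by vehicle-control values.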
# [1] = endpoint: median survival time, dose: 65.0 mg/kg/injection, schedule: Q01DX Z (sc), vehicle: methylcellulose (MC)
# [2] = endpoint: median survival time, dose: 108.0 mg/kg/injection, schedule: Q01DX Z (sc), vehicle: methylcellulose (MC)
# [3] = endpoint: median survival time, dose: 180.0 mg/kg/injection, schedule: Q01DX Z (sc), vehicle: methylcellulose (MC)
# [4] = endpoint: median survival time, dose: 300.0 mg/kg/injection, schedule: Q01DX Z (sc), vehicle: methylcellulose (MC)
# [5] = endpoint: median survival time, dose: 500.0 mg/kg/injection, schedule: Q01DX Z (sc), vehicle: methylcellulose (MC)
compound,measurement,setting,value
CCS(=O)(=O)Nc1cccc(Nc2c3cccc(C)c3nc3c(C)cccc23)c1OC,T/C,"endpoint: mean survival time, dose: 12.5 mg/kg/injection, schedule: Q01DX009 (sc), vehicle: Klucel (hydroxypropylcellulose) (HPC)",105 % of control
same,T/C,"endpoint: mean survival time, dose: 25.0 mg/kg/injection, schedule: Q01DX009 (sc), vehicle: Klucel (hydroxypropylcellulose) (HPC)",100 % of control
same,T/C,"endpoint: mean survival time, dose: 50.0 mg/kg/injection, schedule: Q01DX009 (sc), vehicle: Klucel (hydroxypropylcellulose) (HPC)",104 % of control
same,T/C,"endpoint: mean survival time, dose: 100.0 mg/kg/injection, schedule: Q01DX009 (sc), vehicle: Klucel (hydroxypropylcellulose) (HPC)",112 % of control
NC(Cc1ccc(N(CCCl)CCCl)cc1)C(=O)O (stereo not given),T/C,"endpoint: median survival time, dose: 1.09 mg/kg/injection, schedule: Q01DX Z (sc), vehicle: water",100 % of control
same,T/C,"endpoint: median survival time, dose: 1.81 mg/kg/injection, schedule: Q01DX Z (sc), vehicle: water",100 % of control
same,T/C,"endpoint: median survival time, dose: 3.0 mg/kg/injection, schedule: Q01DX Z (sc), vehicle: saline",100 % of control
same,T/C,"endpoint: median survival time, dose: 3.02 mg/kg/injection, schedule: Q01DX Z (sc), vehicle: water",95 % of control
same,T/C,"endpoint: median survival time, dose: 5.0 mg/kg/injection, schedule: Q01DX Z (sc), vehicle: saline",111 % of control
same,T/C,"endpoint: median survival time, dose: 5.04 mg/kg/injection, schedule: Q01DX Z (sc), vehicle: water",100 % of control
same,T/C,"endpoint: median survival time, dose: 8.4 mg/kg/injection, schedule: Q01DX Z (sc), vehicle: water",100 % of control
same,T/C,"endpoint: median survival time, dose: 14.0 mg/kg/injection, schedule: Q01DX Z (sc), vehicle: saline",155 % of control
same,T/C,"endpoint: median survival time, dose: 23.0 mg/kg/injection, schedule: Q01DX Z (sc), vehicle: saline",122 % of control
same,T/C,"endpoint: median survival time, dose: 39.0 mg/kg/injection, schedule: Q01DX Z (sc), vehicle: saline",122 % of control
same,T/C,"endpoint: median survival time, dose: 65.0 mg/kg/injection, schedule: Q01DX Z (sc), vehicle: saline",122 % of control
same,T/C,"endpoint: median survival time, dose: 108.0 mg/kg/injection, schedule: Q01DX Z (sc), vehicle: saline",111 % of control
CN(C)[C@@H]1C(=O)C(C(=O)NCc2nc3[nH]cnc(=S)c3[nH]2)=C(O)[C@@]2(O)C(=O)C3=C(O)c4c(O)cccc4[C@@](C)(O)[C@H]3C[C@@H]12,T/C,[1],100 % of control
same,T/C,[2],100 % of control
same,T/C,[3],100 % of control
same,T/C,[4],105 % of control
same,T/C,[5],175 % of control
CN(C)/N=N/c1nc[nH]c1C(N)=O,T/C,"endpoint: mean survival time, dose: 39.0 mg/kg/injection, schedule: Q01DX009 (sc), vehicle: steriod suspending solution",117 % of control
same,T/C,"endpoint: mean survival time, dose: 65.0 mg/kg/injection, schedule: Q01DX009 (sc), vehicle: steriod suspending solution",115 % of control
same,T/C,"endpoint: mean survival time, dose: 300.0 mg/kg/injection, schedule: Q01DX009 (sc), vehicle: steriod suspending solution",158 % of control
same,T/C,"endpoint: median survival time, dose: 39.0 mg/kg/injection, schedule: Q01DX009 (sc), vehicle: steriod suspending solution",110 % of control and 116 % of control
same,T/C,"endpoint: median survival time, dose: 39.0 mg/kg/injection, schedule: Q01DX013 (sc), vehicle: steriod suspending solution",110 % of control and 111 % of control
same,T/C,"endpoint: median survival time, dose: 39.0 mg/kg/injection, schedule: Q01DX Z (sc), vehicle: steriod suspending solution",110 % of control and 116 % of control
same,T/C,"endpoint: median survival time, dose: 65.0 mg/kg/injection, schedule: Q01DX009 (sc), vehicle: other",111 % of control
same,T/C,"endpoint: median survival time, dose: 65.0 mg/kg/injection, schedule: Q01DX009 (sc), vehicle: steriod suspending solution",110 % of control and 118 % of control and 121 % of control
same,T/C,"endpoint: median survival time, dose: 65.0 mg/kg/injection, schedule: Q01DX013 (sc), vehicle: other",113 % of control
same,T/C,"endpoint: median survival time, dose: 65.0 mg/kg/injection, schedule: Q01DX013 (sc), vehicle: steriod suspending solution",111 % of control and 113 % of control and 115 % of control
same,T/C,"endpoint: median survival time, dose: 65.0 mg/kg/injection, schedule: Q01DX017 (oral), vehicle: steriod suspending solution",124 % of control
same,T/C,"endpoint: median survival time, dose: 65.0 mg/kg/injection, schedule: Q01DX Z (sc), vehicle: steriod suspending solution",121 % of control and 122 % of control
same,T/C,"endpoint: median survival time, dose: 65.0 mg/kg/injection, schedule: Q ##X015 (oral), vehicle: steriod suspending solution",113 % of control
same,T/C,"endpoint: median survival time, dose: 65.0 mg/kg/injection, schedule: Q## X015 (oral), vehicle: steriod suspending solution",116 % of control
same,T/C,"endpoint: median survival time, dose: 108.0 mg/kg/injection, schedule: Q01DX009 (sc), vehicle: other",108 % of control
same,T/C,"endpoint: median survival time, dose: 108.0 mg/kg/injection, schedule: Q01DX013 (sc), vehicle: steriod suspending solution",115 % of control and 117 % of control and 122 % of control
same,T/C,"endpoint: median survival time, dose: 108.0 mg/kg/injection, schedule: Q01DX Z (sc), vehicle: steriod suspending solution",115 % of control
same,T/C,"endpoint: median survival time, dose: 108.0 mg/kg/injection, schedule: Q ##X015 (oral), vehicle: steriod suspending solution",117 % of control
same,T/C,"endpoint: median survival time, dose: 108.0 mg/kg/injection, schedule: Q## X015 (oral), vehicle: steriod suspending solution",116 % of control
same,T/C,"endpoint: median survival time, dose: 180.0 mg/kg/injection, schedule: Q01DX009 (sc), vehicle: other",115 % of control
same,T/C,"endpoint: median survival time, dose: 300.0 mg/kg/injection, schedule: Q01DX Z (sc), vehicle: steriod suspending solution",166 % of control
same,T/C,"endpoint: median survival time, dose: 500.0 mg/kg/injection, schedule: Q01DX013 (sc), vehicle: other",166 % of control
same,T/C,"endpoint: median survival time, dose: 500.0 mg/kg/injection, schedule: Q01DX013 (sc), vehicle: steriod suspending solution",166 % of control
same,T/C,"endpoint: median survival time, dose: 500.0 mg/kg/injection, schedule: Q01DX017 (oral), vehicle: steriod suspending solution",150 % of control
same,T/C,"endpoint: median survival time, dose: 500.0 mg/kg/injection, schedule: Q## X015 (oral), vehicle: steriod suspending solution",150 % of control
same,T/C,"endpoint: median survival time, dose: 833.0 mg/kg/injection, schedule: Q ##X015 (oral), vehicle: steriod suspending solution",158 % of control
same,T/C,"endpoint: median survival time, dose: 833.0 mg/kg/injection, schedule: Q## X015 (oral), vehicle: steriod suspending solution",166 % of control
OCC1OC(n2cnc3c(Cl)ncnc32)C(O)C1O (stereo not given),T/C,"endpoint: median survival time, dose: 39.0 mg/kg/injection, schedule: Q01DX Z (sc), vehicle: methylcellulose (MC)",100 % of control
same,T/C,[1],100 % of control
same,T/C,[2],100 % of control
same,T/C,[3],100 % of control
same,T/C,[4],95 % of control and 100 % of control
same,T/C,[5],94 % of control and 105 % of control
same,T/C,"endpoint: median survival time, dose: 833.0 mg/kg/injection, schedule: Q01DX Z (sc), vehicle: methylcellulose (MC)",105 % of control
CCSc1ncnc2nc[nH]c12,T/C,"endpoint: median survival time, dose: 38.9 mg/kg/injection, schedule: Q01DX Z (sc), vehicle: methylcellulose (MC)",100 % of control
same,T/C,"endpoint: median survival time, dose: 64.8 mg/kg/injection, schedule: Q01DX Z (sc), vehicle: methylcellulose (MC)",100 % of control
same,T/C,[2],110 % of control
same,T/C,[3],100 % of control
same,T/C,[4],110 % of control
O=NN(CCCl)C(=O)NC1CC2CCC1C2 (stereo not given),T/C,"endpoint: median survival time, dose: 23.0 mg/kg/injection, schedule: Q01DX Z (oral), vehicle: carboxymethylcellulose (CMC)",305 % of control
same,T/C,"endpoint: median survival time, dose: 23.0 mg/kg/injection, schedule: Q01DX Z (sc), vehicle: carboxymethylcellulose (CMC)",321 % of control
same,T/C,"endpoint: median survival time, dose: 39.0 mg/kg/injection, schedule: Q01DX Z (oral), vehicle: carboxymethylcellulose (CMC)",542 % of control
same,T/C,"endpoint: median survival time, dose: 39.0 mg/kg/injection, schedule: Q01DX Z (sc), vehicle: carboxymethylcellulose (CMC)",500 % of control
same,T/C,"endpoint: median survival time, dose: 65.0 mg/kg/injection, schedule: Q01DX Z (oral), vehicle: carboxymethylcellulose (CMC)",236 % of control
same,T/C,"endpoint: median survival time, dose: 65.0 mg/kg/injection, schedule: Q01DX Z (sc), vehicle: carboxymethylcellulose (CMC)",289 % of control
same,T/C,"endpoint: median survival time, dose: 108.0 mg/kg/injection, schedule: Q01DX Z (oral), vehicle: carboxymethylcellulose (CMC)",178 % of control
Nc1ccn(C2CC(O)C(CO)O2)c(=O)n1 (stereo not given),T/C,"endpoint: median survival time, dose: 37.5 mg/kg/injection, schedule: Q06HX018 (sc), vehicle: water",108 % of control
same,T/C,"endpoint: median survival time, dose: 37.5 mg/kg/injection, schedule: Q## X018 (sc), vehicle: water",111 % of control
same,T/C,"endpoint: median survival time, dose: 75.0 mg/kg/injection, schedule: Q03HX008 (sc), vehicle: water",90 % of control and 93 % of control
same,T/C,"endpoint: median survival time, dose: 75.0 mg/kg/injection, schedule: Q06HX018 (sc), vehicle: water",102 % of control
same,T/C,"endpoint: median survival time, dose: 75.0 mg/kg/injection, schedule: Q## X018 (sc), vehicle: water",100 % of control
same,T/C,"endpoint: median survival time, dose: 150.0 mg/kg/injection, schedule: Q03HX008 (sc), vehicle: water",100 % of control and 102 % of control
same,T/C,"endpoint: median survival time, dose: 150.0 mg/kg/injection, schedule: Q06HX018 (sc), vehicle: water",98 % of control
same,T/C,"endpoint: median survival time, dose: 150.0 mg/kg/injection, schedule: Q## X018 (sc), vehicle: water",100 % of control
same,T/C,"endpoint: median survival time, dose: 300.0 mg/kg/injection, schedule: Q06HX018 (sc), vehicle: water",106 % of control
same,T/C,"endpoint: median survival time, dose: 300.0 mg/kg/injection, schedule: Q## X018 (sc), vehicle: water",105 % of control
CS(=O)(=O)OCCCCCCCCCOS(C)(=O)=O,T/C,"endpoint: median survival time, dose: 47.0 mg/kg/injection, schedule: Q01DX Z (sc), vehicle: methylcellulose (MC)",105 % of control
same,T/C,"endpoint: median survival time, dose: 78.0 mg/kg/injection, schedule: Q01DX Z (sc), vehicle: methylcellulose (MC)",115 % of control
same,T/C,"endpoint: median survival time, dose: 216.0 mg/kg/injection, schedule: Q01DX Z (sc), vehicle: methylcellulose (MC)",160 % of control
